Data reported in PMC8071193, “Dual-Target Compounds against Type 2 Diabetes Mellitus: Proof of Concept for Sodium Dependent Glucose Transporter (SGLT) and Glycogen Phosphorylase (GP) Inhibitors” (Pharmaceuticals, 2021).

Each compound was assayed against T1, SGLT2 (Homo sapiens, UniProt P31639) (assay: SGLT2 inhibition, 2-NBDG glucose uptake in SGLT2-overexpressing TSA201 cells). Conditions: TSA201 cells, up to 1000 µM.
T1 construct: host or cells: TSA201 (Human Embryonal Kidney) cells, lentiviral transduction, puromycin selection
T1 sequence (P31639 1-672): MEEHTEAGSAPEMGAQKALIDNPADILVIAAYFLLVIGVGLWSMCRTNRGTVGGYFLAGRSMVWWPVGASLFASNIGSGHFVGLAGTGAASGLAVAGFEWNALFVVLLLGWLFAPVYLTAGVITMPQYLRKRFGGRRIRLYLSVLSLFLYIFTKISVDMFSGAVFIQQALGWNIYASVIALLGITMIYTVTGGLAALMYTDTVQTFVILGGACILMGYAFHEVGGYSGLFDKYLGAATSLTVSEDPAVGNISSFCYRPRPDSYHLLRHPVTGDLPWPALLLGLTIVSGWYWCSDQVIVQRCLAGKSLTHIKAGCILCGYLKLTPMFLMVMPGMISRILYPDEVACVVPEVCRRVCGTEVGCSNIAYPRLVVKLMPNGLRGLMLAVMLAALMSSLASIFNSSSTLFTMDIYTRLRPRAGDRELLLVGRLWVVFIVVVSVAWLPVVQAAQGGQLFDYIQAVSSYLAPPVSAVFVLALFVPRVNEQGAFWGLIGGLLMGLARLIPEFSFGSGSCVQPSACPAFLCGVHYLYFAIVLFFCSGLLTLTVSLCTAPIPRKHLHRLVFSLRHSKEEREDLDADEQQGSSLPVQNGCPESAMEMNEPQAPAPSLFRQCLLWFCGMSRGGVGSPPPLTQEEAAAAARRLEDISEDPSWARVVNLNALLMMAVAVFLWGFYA
Assay type: cell-based

| SMILES | SGLT2 inhibition (in words) |
| --- | --- |
| OC[C@H]1O[C@@H](c2nccc(Cc3ccc(Cl)cc3)n2)[C@H](O)[C@@H](O)[C@@H]1O [16c, 4-(4-Chlorobenzyl)-2-(β-D-glucopyranosyl)pyrimidine] | inactive |
| OC[C@H]1O[C@@H](c2nccc(Cc3ccc4ccccc4c3)n2)[C@H](O)[C@@H](O)[C@@H]1O [16d, 2-(β-D-Glucopyranosyl)-4-(2-naphthylmethyl)pyrimidine] | non-inhibitory |
| OCCn1nc([C@@H]2O[C@H](CO)[C@@H](O)[C@H](O)[C@H]2O)nc1Cc1ccccc1 [19b] | complete loss of the inhibition |

Same assay, conditions: Table 2; TSA-201 cells; NI: no inhibition at 1000 µM; compounds 1-2 used as controls for in-house assay

| SMILES | IC50 [µM] |
| --- | --- |
| OC[C@H]1O[C@@H](c2nccc(Cc3ccc(Cl)cc3)n2)[C@H](O)[C@@H](O)[C@@H]1O [16c, 4-(4-Chlorobenzyl)-2-(β-D-glucopyranosyl)pyrimidine] | > 1000 |
| OC[C@H]1O[C@@H](c2nccc(Cc3ccc4ccccc4c3)n2)[C@H](O)[C@@H](O)[C@@H]1O [16d, 2-(β-D-Glucopyranosyl)-4-(2-naphthylmethyl)pyrimidine] | > 1000 |
| OCCn1nc([C@@H]2O[C@H](CO)[C@@H](O)[C@H](O)[C@H]2O)nc1Cc1ccccc1 [19b] | > 1000 |

Same assay, conditions: Table 3; TSA-201 cells; NI: no inhibition at 1000 µM

| SMILES | IC50 [µM] |
| --- | --- |
| OC[C@H]1O[C@@H](n2cc(-c3ccccc3)nn2)[C@H](O)[C@@H](O)[C@@H]1O [21a] | 67.3 ± 10.9 |
| OC[C@H]1O[C@@H](n2cc(-c3ccc4ccccc4c3)nn2)[C@H](O)[C@@H](O)[C@@H]1O [21b] | 10.3 ± 2.18 |
| OC[C@H]1O[C@@H](c2nc(-c3ccccc3)cs2)[C@H](O)[C@@H](O)[C@@H]1O [23a] | > 1000 |
| OC[C@H]1O[C@@H](c2nc(-c3ccc4ccccc4c3)cs2)[C@H](O)[C@@H](O)[C@@H]1O [23b] | > 1000 |
| OC[C@H]1O[C@@H](c2nc(-c3ccccc3)c[nH]2)[C@H](O)[C@@H](O)[C@@H]1O [24a] | 91.04 ± 0.56 |
| OC[C@H]1O[C@@H](c2nc(-c3ccc4ccccc4c3)c[nH]2)[C@H](O)[C@@H](O)[C@@H]1O [24b, 2-(β-D-glucopyranosyl)-4(5)-(2-naphthyl)-imidazole] | 3.5 ± 0.88 |
| OC[C@H]1O[C@@H](c2nnc(-c3ccccc3)[nH]2)[C@H](O)[C@@H](O)[C@@H]1O [25a] | 15 ± 2.74 |
| OC[C@H]1O[C@@H](c2nc(-c3ccc4ccccc4c3)n[nH]2)[C@H](O)[C@@H](O)[C@@H]1O [25b] | 17.7 ± 2.32 |

Same assay, conditions: comparisons 21a–21b and 24a–24b

| SMILES | factor by which the 2-naphthyl derivative is the stronger inhibitor of SGLT2 |
| --- | --- |
| OC[C@H]1O[C@@H](n2cc(-c3ccc4ccccc4c3)nn2)[C@H](O)[C@@H](O)[C@@H]1O [21b] | ~ 7 |
| OC[C@H]1O[C@@H](c2nc(-c3ccc4ccccc4c3)c[nH]2)[C@H](O)[C@@H](O)[C@@H]1O [24b, 2-(β-D-glucopyranosyl)-4(5)-(2-naphthyl)-imidazole] | ~ 26 |

These compounds were tested against T2, SGLT1 (Homo sapiens, UniProt P13866) (assay: SGLT1 inhibition, 2-NBDG glucose uptake in SGLT1-overexpressing TSA201 cells). Conditions: Table 2; TSA-201 cells; NI: no inhibition at 1000 µM; compounds 1-2 used as controls for in-house assay.
T2 construct: host or cells: TSA201 (Human Embryonal Kidney) cells, lentiviral transduction, puromycin selection
T2 sequence (P13866 1-664): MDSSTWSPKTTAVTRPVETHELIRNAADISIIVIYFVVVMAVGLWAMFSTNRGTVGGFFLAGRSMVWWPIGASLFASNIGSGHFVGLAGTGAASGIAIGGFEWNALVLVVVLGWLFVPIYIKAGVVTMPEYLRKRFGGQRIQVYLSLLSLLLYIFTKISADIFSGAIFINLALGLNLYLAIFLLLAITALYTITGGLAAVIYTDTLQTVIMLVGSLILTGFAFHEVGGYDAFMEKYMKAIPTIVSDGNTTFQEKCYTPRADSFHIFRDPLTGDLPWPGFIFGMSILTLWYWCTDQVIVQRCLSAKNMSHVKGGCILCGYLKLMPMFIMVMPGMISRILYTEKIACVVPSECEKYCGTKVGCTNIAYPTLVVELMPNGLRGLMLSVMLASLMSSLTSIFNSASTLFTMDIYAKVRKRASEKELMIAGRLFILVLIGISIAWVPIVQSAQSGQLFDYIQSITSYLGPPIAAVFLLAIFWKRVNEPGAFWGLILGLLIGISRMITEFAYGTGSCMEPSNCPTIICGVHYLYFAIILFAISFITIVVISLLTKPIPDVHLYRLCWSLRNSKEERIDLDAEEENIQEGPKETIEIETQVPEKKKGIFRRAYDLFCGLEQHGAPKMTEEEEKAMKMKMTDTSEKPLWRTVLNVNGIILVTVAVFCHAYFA
Assay type: cell-based
Description: Cells (100,000 cells, TSA201) were plated into each well of a 24-well plate and incubated overnight at 37 °C. […] Two wells were treated only with hexadimetrine bromide as a control. After 24 h of transfection, the medium was changed to fresh medium without antibiotics. Cells were collected and transferred into T-25 flasks after 3 days. On the fifth day, 10 µg/mL puromycin was added to select only the transfected cells. The nontransfected cells cannot survive this high concentration of antibiotic. To keep up the selection, the medium including 10 µg/mL puromycin was replaced every two days. The cells lived under puromycin pressure until the day of the experiments.
TSA201 cells (25,000) with and without overexpressed SGLT1 or 2 were put into poly-L-lysine (P5999, Sigma-Aldrich, St. Luis, MO, USA) treated wells of a 96-well plate. The next day, the cells were starved for 1 h with 90 µL glucose-free medium (D5036-10X1L Sigma-Aldrich, St. Luis, MO, USA) (with or without inhibitor). After starving, cells were treated with 100 µM 2-NBDG and incubated for 30 min (again with or without inhibitor). The incubation time of cells with possible inhibitors was 90 min altogether. After incubation, the medium was removed, the wells were washed with PBS twice, lysed with 100 µL lysis buffer (0.1 M KH2PO4 + 1% Triton-x, pH = 11), and stored at -20°C. […] Subsequently, the protein concentration was measured and NBDG uptake was normalized to protein amount.
After selecting optimal concentrations, each compound was tested at four different concentrations. […] To determine the specific effects of the compounds on SGLT1 or 2, the glucose uptake values in TSA201 cells without SGLT overexpression were subtracted from the values in TSA201 cell overexpressing SGLT. […] All calculations were prepared using the GraphPad Prism software (GraphPad Software, Inc., SanDiego, CA, USA). The data were plotted on a logarithmic scale as a function of inhibitor concentration. The IC50 values were calculated by non-linear regression analysis from sigmoidal dose-response curves. The results of kinetic experiments were calculated from at least three independent experiments. Each experiment contained four parallel samples that were averaged. The standard deviations were calculated based on the average values for the independent experiments.

| SMILES | IC50 [µM] |
| --- | --- |
| OC[C@H]1O[C@@H](c2nccc(Cc3ccc(Cl)cc3)n2)[C@H](O)[C@@H](O)[C@@H]1O [16c, 4-(4-Chlorobenzyl)-2-(β-D-glucopyranosyl)pyrimidine] | > 1000 |
| OC[C@H]1O[C@@H](c2nccc(Cc3ccc4ccccc4c3)n2)[C@H](O)[C@@H](O)[C@@H]1O [16d, 2-(β-D-Glucopyranosyl)-4-(2-naphthylmethyl)pyrimidine] | > 1000 |
| OCCn1nc([C@@H]2O[C@H](CO)[C@@H](O)[C@H](O)[C@H]2O)nc1Cc1ccccc1 [19b] | > 1000 |

Same assay, conditions: Table 3; TSA-201 cells; NI: no inhibition at 1000 µM

| SMILES | IC50 [µM] |
| --- | --- |
| OC[C@H]1O[C@@H](n2cc(-c3ccccc3)nn2)[C@H](O)[C@@H](O)[C@@H]1O [21a] | 167 ± 63.5 |
| OC[C@H]1O[C@@H](n2cc(-c3ccc4ccccc4c3)nn2)[C@H](O)[C@@H](O)[C@@H]1O [21b] | 127 ± 21.6 |
| OC[C@H]1O[C@@H](c2nc(-c3ccccc3)cs2)[C@H](O)[C@@H](O)[C@@H]1O [23a] | > 1000 |
| OC[C@H]1O[C@@H](c2nc(-c3ccc4ccccc4c3)cs2)[C@H](O)[C@@H](O)[C@@H]1O [23b] | > 1000 |
| OC[C@H]1O[C@@H](c2nc(-c3ccccc3)c[nH]2)[C@H](O)[C@@H](O)[C@@H]1O [24a] | 245 ± 42 |
| OC[C@H]1O[C@@H](c2nc(-c3ccc4ccccc4c3)c[nH]2)[C@H](O)[C@@H](O)[C@@H]1O [24b, 2-(β-D-glucopyranosyl)-4(5)-(2-naphthyl)-imidazole] | 11.9 ± 2.61 |
| OC[C@H]1O[C@@H](c2nnc(-c3ccccc3)[nH]2)[C@H](O)[C@@H](O)[C@@H]1O [25a] | 125 ± 46.5 |
| OC[C@H]1O[C@@H](c2nc(-c3ccc4ccccc4c3)n[nH]2)[C@H](O)[C@@H](O)[C@@H]1O [25b] | 13 ± 2.88 |

The compounds below were run against T3, rabbit muscle glycogen phosphorylase b (rmGPb) (Oryctolagus cuniculus, UniProt P00489) (assay: Glycogen phosphorylase b enzyme kinetic inhibition assay (direction of glycogen synthesis)). Conditions: not given.
T3 construct: Glycogen phosphorylase b was isolated from rabbit skeletal muscle; from tissue; host or cells: rabbit skeletal muscle
T3 sequence (P00489 1-843): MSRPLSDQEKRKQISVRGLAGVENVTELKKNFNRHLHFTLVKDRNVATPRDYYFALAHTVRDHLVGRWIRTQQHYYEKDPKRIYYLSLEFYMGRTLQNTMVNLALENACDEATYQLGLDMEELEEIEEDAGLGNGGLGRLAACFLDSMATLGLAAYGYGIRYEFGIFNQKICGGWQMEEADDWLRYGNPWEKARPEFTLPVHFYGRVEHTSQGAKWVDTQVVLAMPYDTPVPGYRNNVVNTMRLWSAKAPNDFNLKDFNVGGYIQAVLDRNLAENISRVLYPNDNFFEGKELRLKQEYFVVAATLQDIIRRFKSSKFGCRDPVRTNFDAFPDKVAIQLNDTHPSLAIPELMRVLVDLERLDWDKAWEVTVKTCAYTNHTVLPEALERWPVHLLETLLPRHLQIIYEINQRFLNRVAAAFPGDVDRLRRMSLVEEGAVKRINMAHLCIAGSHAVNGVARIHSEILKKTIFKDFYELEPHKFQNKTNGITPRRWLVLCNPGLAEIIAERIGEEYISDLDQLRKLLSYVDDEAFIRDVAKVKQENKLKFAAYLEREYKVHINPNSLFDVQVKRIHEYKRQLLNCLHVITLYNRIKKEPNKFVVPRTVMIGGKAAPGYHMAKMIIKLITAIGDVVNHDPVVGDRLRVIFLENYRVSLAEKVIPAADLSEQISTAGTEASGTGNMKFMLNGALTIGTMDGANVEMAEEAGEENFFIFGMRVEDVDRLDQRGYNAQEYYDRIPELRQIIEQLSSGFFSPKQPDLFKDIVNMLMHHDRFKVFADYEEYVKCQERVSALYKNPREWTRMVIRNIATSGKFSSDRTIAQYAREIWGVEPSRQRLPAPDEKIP
Assay type: biochemical
Excerpt: The 2-NBDG (2-deoxy-2-[(7-nitro-2,1,3-benzoxadiazol-4-yl)amino]-D-glucose, cat. 11046) was purchased from Cayman Chemical Company (Ann Arbor, MI, USA). Lentivirus for SLC5A1 and SLC5A2 (NM_000343 for SGLT1, and NM-003041 for SGLT2) were obtained from Origene (Rockville, MD, USA). These expression vectors contain a puromycin resistance gene. […] CyQUANT^TM Cell Proliferation Assay Kit (2036547) was from Invitrogen (Carlsbad, CA, USA). Glycogen phosphorylase b was isolated from rabbit skeletal muscle according to the method of Fischer and Krebs.
Enzyme activity in the direction of glycogen synthesis was assayed. Kinetic data were collected using the muscle phosphorylase b (dephosphorylated, GPb) isoform. […] Enzymatic activities were presented in the form of a double-reciprocal plot (Lineweaver-Burk). The plots were analysed by a non-linear data analysis program. The inhibitor constants (Ki) were determined by secondary plots, replotting the slopes from the Lineweaver-Burk plot against the inhibitor concentrations. The means of standard errors for all calculated kinetic parameters averaged to less than 10% [78, 79].

| SMILES | IC50 [µM] |
| --- | --- |
| CCOc1ccc(Cc2cc([C@@H]3O[C@H](CO)[C@@H](O)[C@H](O)[C@H]3O)ccc2Cl)cc1 [compound 2, dapagliflozin, reference compound] | > 625 |

Same assay, conditions: Table 2; NI: no inhibition at 625 µM

| SMILES | IC50 [µM] |
| --- | --- |
| OC[C@H]1O[C@@H](c2nccc(Cc3ccc(Cl)cc3)n2)[C@H](O)[C@@H](O)[C@@H]1O [16c, 4-(4-Chlorobenzyl)-2-(β-D-glucopyranosyl)pyrimidine] | > 625 |
| OC[C@H]1O[C@@H](c2nccc(Cc3ccc4ccccc4c3)n2)[C@H](O)[C@@H](O)[C@@H]1O [16d, 2-(β-D-Glucopyranosyl)-4-(2-naphthylmethyl)pyrimidine] | > 625 |
| OCCn1nc([C@@H]2O[C@H](CO)[C@@H](O)[C@H](O)[C@H]2O)nc1Cc1ccccc1 [19b] | > 625 |
